Read-outs that look alike come from different tables or passages of the source.
How the values were obtained:
HIV-1 = assay: Anti-HIV-1 activity, p24 antigen assay in infected PBMC (Example 1); assay type: cell-based; conditions: for IC50: read-out: IC50, HIV-1 replication (p24 antigen)
Protocol: Subsequently, cells were cultured in 96-well microtiter plates (100 μl/well; 2×10^6/ml, triplicate wells) in the presence and absence of various concentrations (0.00 μM to 100 μM) of drugs for 7 days. Aliquots of culture supernatants were removed from the wells on the 7th day after infection for p24 antigen enzyme immunoassay as an indication of viral replication. Erice et al. Antimicrob. Agents and Chemother. […] Agents and Chemother. […] Percent inhibition of virus replication was calculated by comparing the p24 antigen values from the test drug-treated infected cells with p24 antigen values from untreated infected cells. […] Cell viability was quantified by a colorimetric […] assay. F. M. Uckun et al., Antimicrob. Agents and Chemother.

sperm acrosome = assay: Sperm acrosome and membrane integrity by FITC-lectin staining, confocal, SEM and TEM (Example 4); assay type: cell-based, human; conditions: for sperm head topography by scanning electron microscopy: 100 μM WHI compounds or 10 μM Cal A23187, 3 hours; for acrosome status by confocal microscopy (FITC-lectin) / acrosome-intact sperm: 100 μM; for acrosome status by confocal microscopy (FITC-lectin) / sperm head membranes by transmission electron microscopy / acrosome-intact sperm: 3 hours; for acrosome-intact sperm: method counts percentages of sperm with intact acrosome
Protocol: The percentages of sperm with an intact acrosome were evaluated by fluorescence microscopy (Olympus BX-60) following fixation and ethanol permeabilization of the sperm pellets and subsequent staining with fluorescein (FITC)-conjugated Pisum sativum lectin (Sigma). In positive control sperm, the acrosome reaction was induced by incubating (3 hours at 37° C.) the sperm suspension with 10 μm calcium ionophore (Cal) A23187 (Sigma). […] The percentage of sperm positive for PI were determined by flow cytometry using a FACS Vantage flow cytometer (Becton Dickinson and Co., Mountain View, Calif.). The sperm in the swim-up fractions were identified by their characteristic forward and 90° angle light scattering properties [O. J. D'Cruz and G. G. Haas, Jr. Fertil. Steril. 58, 633 (1992)]. All analyses were done using the 488-nm excitation from an krypton/argon laser with a 635-nm band pass filter for PI emission. The percentage of sperm positive for PI staining were determined using cutoff signals for membrane-intact motile sperm.
Ethanol permeabilized and air-dried sperm smears were stained sequentially with the three fluorescent markers, FITC-Pisum sativum, TOTO-3 iodide, and Nile red, each marking a different target (acrosome, nucleus, and plasma membrane of permeabilized sperm respectively). Samples were examined under a BioRad MRC-1024 Laser Scanning Confocal Microscope (BioRad Laboratories, Hercules, Calif.) equipped with a krypton/argon mixed gas laser (excitation lines 488, 568, and 647 nm) and mounted on a Nikon Eclipse E800 series upright microscope. The fluorescence emission of fluorescein, TOTO-3 iodide, and Nile red from the acrosomal region, nucleus, and the plasma membrane of sperm after ethanol permeabilization were simultaneously detected using the 598/40 nm, 522 DF32, and 680 DF32 emission/filter respectively. Confocal images were obtained using a Nikon 60× (NA 1.35) objective lens and Kalman collection filter. Digitized images were processed with the Adobe Photoshop software (Adobe Systems, Mountain View, Calif.). Final images were printed using a Fujix Pictography 3000 (Fuji Photo Film Co., Tokyo, Japan) color printer.
High-resolution low-voltage scanning electron microscopy was utilized for topographical imaging of different membrane domains over the sperm head as described [M. H. Stoffel et al. Molecular. Reprod. Develop. 34, 175 (1993); S. L. Erlandsen et al. Scanning 11, 169 (1989)]. […] Washed sperm suspensions were placed on 0.1% poly-L-lysine-coated glass chips and allowed to adhere to the glass over a 60 minute incubation period on ice. The supernatants were decanted, and adherent cells were fixed in 1% paraformaldehyde and 1% glutaraldehyde in 0.14 M sodium cacodylate buffer for 3 hours. To preserve plasma membrane integrity, sperm were post-fixed in 1% osmium tetroxide (OSO4) containing 0.1% ruthenium red in 0.14 M cacodylate buffer for 1 hour at 4° C. All samples were dehydrated through an ascending ethanol series, critical point dried, and coated with approximately 2 nm of platinum using ion beam sputtering with argon (4 mA at 10 ke V; Ion Tech Ltd., Middlesex, England). All samples were examined in a Hitachi S-900 SEM at an accelerating voltage of 2 keV. Sperm were observed under low magnification (×2,000-5000) and representative sperm were photographed under intermediate magnification (×18,000-25,000). In each specimen evaluated, at least 200 sperm were scanned for the intactness of sperm acrosomal region.
For transmission electron microscopy, treated sperm were fixed in 3% glutaraldehyde in 5% sucrose in 0.2 M cacodylate buffer for 3 hours at room temperature. The samples were post-fixed in 1% OSO4, 5% sucrose and 0.1% ruthenium red for 2 hours at 4° C. The samples were dehydrated in ascending ethanol series, and embedded in Spurr's epoxy. Thin sections (90 nm) were prepared on a Reichert-Jung Ultracut E and stained with uranyl acetate and lead citrate.

## 5-bromo-6-methoxy-5,6-dihydro-3 ′-azidothymidine-5 ′-(p-methoxyphenyl) methoxyalaninyl phosphate [WHI-05]
HIV-1; human peripheral blood mononuclear cells, 7 days
  IC50: 50 nM
Sperm acrosome
  sperm head topography by scanning electron microscopy: intact acrosomes
  acrosome status by confocal microscopy (FITC-lectin): uniform, bright green fluorescence
  sperm head membranes by transmission electron microscopy: intactness of the plasma membrane, outer, and inner acrosomal membranes
  acrosome-intact sperm: 97.0±2.0

## CCCCCCCCCc1ccc(OCCOCCOCCOCCOCCOCCOCCOCCOCCO)cc1 [Compound N-9, nonoxynol-9, reference compound]
HIV-1; Human immunodeficiency virus 1, PBMC, 168 h, human peripheral blood mononuclear cells, 7 days
  IC50: 2200 nM
Sperm acrosome
  acrosome status by confocal microscopy (FITC-lectin): only acrosome-reacted sperm

## COC(=O)C(C)NP(=O)(OCC1OC(N2C(=O)NC(=O)C(C)(Br)C2OC)CC1N=[N+]=[N-])Oc1ccc(Br)cc1 (stereo not shown) [WHI-07, 5-Bromo-6-methoxy-5,6-dihydro-3′-azidothymidine-5′-(p-Bromophenyl Methoxyalaninyl Phosphate)]
HIV-1; Human immunodeficiency virus 1, PBMC, 168 h
  IC50: 5 nM
HIV-1; ratio of IC50 values
  anti-HIV potency relative to N-9: 439 fold
Sperm acrosome
  sperm head topography by scanning electron microscopy: mild acrosomal membrane ruffling
  acrosome status by confocal microscopy (FITC-lectin): uniform, bright green fluorescence
  sperm head membranes by transmission electron microscopy: intactness of the plasma membrane, outer, and inner acrosomal membranes
  acrosome-intact sperm: 93.0±5.6

Source: patent publication US6482805B2 (Parker Hughes Institute, priority 1998, dated 2002)
